Measurements reported in PMC6979384, “Characterization of the plant homeodomain (PHD) reader family for their histone tail interactions” (Epigenetics & Chromatin, 2020).

Tests used:
Test in all cases: Histone peptide microarray
Type in all cases: binding, human
SP140L = conditions: arrays performed twice, n of 4; for Array Heatmap signal, SP140L: histone peptide array, GST-tagged reader
Summary of the method: (§1)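 Purified PHD finger domains fused to GST are screened against 293 synthetic histone peptides bearing one or several post-translational modifications. The protein is used at 0.5 μM, and the signal from four replicate arrays is averaged, with standard deviation given.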

PHF21A = conditions: arrays performed twice, n of 4; for Array Heatmap signal, PHF21A: histone peptide array, GST-tagged reader
Summary of the method: as §1

ING3 = conditions: arrays performed twice, n of 4; for Array Heatmap signal, ING3: histone peptide array, GST-tagged reader
Summary of the method: as §1

MLL5 = conditions: arrays performed twice, n of 4; for Array Heatmap signal, MLL5: histone peptide array, GST-tagged reader
Summary of the method: as §1

PHRF1 (RP) = conditions: arrays performed twice, n of 4; for Array Heatmap signal, PHRF1 (RP): histone peptide array, GST-tagged reader
Summary of the method: as §1

PHF8 = conditions: arrays performed twice, n of 4; for Array Heatmap signal, PHF8: histone peptide array, GST-tagged reader
Summary of the method: as §1

KDM7A = conditions: arrays performed twice, n of 4; for Array Heatmap signal, KDM7A: histone peptide array, GST-tagged reader
Summary of the method: as §1

ING1 = conditions: arrays performed twice, n of 4; for Array Heatmap signal, ING1: histone peptide array, GST-tagged reader
Summary of the method: as §1

TRIM66 (PB) = conditions: arrays performed twice, n of 4; for Array Heatmap signal, TRIM66 (PB): histone peptide array, GST-tagged reader, PB = PHD + Bromodomain
Summary of the method: as §1

ING5 = conditions: arrays performed twice, n of 4; for Array Heatmap signal, ING5: histone peptide array, GST-tagged reader
Summary of the method: as §1

KDM4C (TTP) = conditions: arrays performed twice, n of 4; for Array Heatmap signal, KDM4C (TTP): histone peptide array, GST-tagged reader, TTP = Tandem Tudor domain + PHD
Summary of the method: as §1

AIRE (PP) = conditions: arrays performed twice, n of 4; for Array Heatmap signal, AIRE (PP): histone peptide array, GST-tagged reader
Summary of the method: as §1

CHD5 (PCC) = conditions: arrays performed twice, n of 4; for Array Heatmap signal, CHD5 (PCC): histone peptide array, GST-tagged reader, PCC = PHD + Dual Chromodomain
Summary of the method: as §1

KDM5A (1) = conditions: arrays performed twice, n of 4; for Array Heatmap signal, KDM5A (1): histone peptide array, GST-tagged reader
Summary of the method: as §1

KDM5B (1) = conditions: arrays performed twice, n of 4; for Array Heatmap signal, KDM5B (1): histone peptide array, GST-tagged reader
Summary of the method: as §1

DIDO1 = conditions: arrays performed twice, n of 4; for Array Heatmap signal, DIDO1: histone peptide array, GST-tagged reader
Summary of the method: as §1

DPF2 (PPC2W2) = conditions: arrays performed twice, n of 4; for Array Heatmap signal, DPF2 (PPC2W2): histone peptide array, GST-tagged reader, PPC2W2 = Dual PHD + C2W2-type Zn-finger
Summary of the method: as §1

PHF13 = conditions: arrays performed twice, n of 4; for Array Heatmap signal, PHF13: histone peptide array, GST-tagged reader
Summary of the method: as §1

TAF3 = conditions: arrays performed twice, n of 4; for Array Heatmap signal, TAF3: histone peptide array, GST-tagged reader
Summary of the method: as §1

CHD4 (PPCC) = conditions: arrays performed twice, n of 4; for Array Heatmap signal, CHD4 (PPCC): histone peptide array, GST-tagged reader, PPCC = Dual PHD + Dual Chromodomain
Summary of the method: as §1

MORC3 (CW) = conditions: arrays performed twice, n of 4; for Array Heatmap signal, MORC3 (CW): histone peptide array, GST-tagged reader, CW = CW-type Zn-finger
Summary of the method: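 GST-tagged PHD finger readers were expressed, purified and applied at 0.5 μM to a microarray of 293 synthetic histone peptides carrying single or combinatorial PTMs, using an optimized protocol. Binding signals are averages with standard deviation from 4 replicates.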

RAG2 = conditions: arrays performed twice, n of 4; for Array Heatmap signal, RAG2: histone peptide array, GST-tagged reader
Summary of the method: as §1

BAZ2B = conditions: arrays performed twice, n of 4; for Array Heatmap signal, BAZ2B: histone peptide array, GST-tagged reader
Summary of the method: as §1

ING2 = conditions: arrays performed twice, n of 4; for Array Heatmap signal, ING2: histone peptide array, GST-tagged reader
Summary of the method: as §1

KDM5B (3) = conditions: arrays performed twice, n of 4; for Array Heatmap signal, KDM5B (3): histone peptide array, GST-tagged reader
Summary of the method: as §1

PHF2 = conditions: arrays performed twice, n of 4; for Array Heatmap signal, PHF2: histone peptide array, GST-tagged reader
Summary of the method: as §1

PHF23 = conditions: arrays performed twice, n of 4; for Array Heatmap signal, PHF23: histone peptide array, GST-tagged reader
Summary of the method: as §1

CHD5 (PPCC) = conditions: arrays performed twice, n of 4; for Array Heatmap signal, CHD5 (PPCC): histone peptide array, GST-tagged reader, PPCC = Dual PHD + Dual Chromodomain
Summary of the method: as §1

KDM5A (3) = conditions: arrays performed twice, n of 4; for Array Heatmap signal, KDM5A (3): histone peptide array, GST-tagged reader
Summary of the method: as §1

BPTF (PB) = conditions: arrays performed twice, n of 4; for Array Heatmap signal, BPTF (PB): histone peptide array, GST-tagged reader, PB = PHD + Bromodomain
Summary of the method: as §1

ING4 = conditions: arrays performed twice, n of 4; for Array Heatmap signal, ING4: histone peptide array, GST-tagged reader
Summary of the method: as §1

Substance: H3 (15-34)K27ac: H3 15-34
- Array Heatmap signal, SP140L (SP140L): 0.3795
- Array Heatmap signal, PHF21A (PHF21A): 0.4777
- Array Heatmap signal, ING3 (ING3): 0.5008
- Array Heatmap signal, MLL5 (MLL5): 0.5399
- Array Heatmap signal, PHRF1 (RP) (PHRF1 (RP)): 0.4538
- Array Heatmap signal, PHF8 (PHF8): 0.3727
- Array Heatmap signal, KDM7A (KDM7A): 0.3922
- Array Heatmap signal, ING1 (ING1): 0.5528
- Array Heatmap signal, TRIM66 (PB) (TRIM66 (PB)): 0.5567
- Array Heatmap signal, ING5 (ING5): 0.3933
- Array Heatmap signal, KDM4C (TTP) (KDM4C (TTP)): 0.5365
- Array Heatmap signal, AIRE (PP) (AIRE (PP)): 0.5038
- Array Heatmap signal, CHD5 (PCC) (CHD5 (PCC)): 0.7622
- Array Heatmap signal, KDM5A (1) (KDM5A (1)): 0.5009
- Array Heatmap signal, KDM5B (1) (KDM5B (1)): 0.6588
- Array Heatmap signal, DIDO1 (DIDO1): 0.6571
- Array Heatmap signal, DPF2 (PPC2W2) (DPF2 (PPC2W2)): 0.642
- Array Heatmap signal, PHF13 (PHF13): 0.6352
- Array Heatmap signal, TAF3 (TAF3): 0.268
- Array Heatmap signal, CHD4 (PPCC) (CHD4 (PPCC)): 0.5674
- Array Heatmap signal, MORC3 (CW) (MORC3 (CW)): 0.3756
- Array Heatmap signal, RAG2 (RAG2): 0.2665
- Array Heatmap signal, BAZ2B (BAZ2B): 0.4845
- Array Heatmap signal, ING2 (ING2): 0.5993
- Array Heatmap signal, KDM5B (3) (KDM5B (3)): 0.4788
- Array Heatmap signal, PHF2 (PHF2): 0.4814
- Array Heatmap signal, PHF23 (PHF23): 0.5579
- Array Heatmap signal, CHD5 (PPCC) (CHD5 (PPCC)): 0.5983
- Array Heatmap signal, KDM5A (3) (KDM5A (3)): 0.4223
- Array Heatmap signal, BPTF (PB) (BPTF (PB)): 0.3592
- Array Heatmap signal, ING4 (ING4): 0.4806

Substance: H3 (15-34)K27but: H3 15-34
- Array Heatmap signal, SP140L (SP140L): 0.3805
- Array Heatmap signal, PHF21A (PHF21A): 0.4988
- Array Heatmap signal, ING3 (ING3): 0.4849
- Array Heatmap signal, MLL5 (MLL5): 0.5529
- Array Heatmap signal, PHRF1 (RP) (PHRF1 (RP)): 0.4393
- Array Heatmap signal, PHF8 (PHF8): 0.4166
- Array Heatmap signal, KDM7A (KDM7A): 0.4288
- Array Heatmap signal, ING1 (ING1): 0.5341
- Array Heatmap signal, TRIM66 (PB) (TRIM66 (PB)): 0.6313
- Array Heatmap signal, ING5 (ING5): 0.383
- Array Heatmap signal, KDM4C (TTP) (KDM4C (TTP)): 0.5459
- Array Heatmap signal, AIRE (PP) (AIRE (PP)): 0.5516
- Array Heatmap signal, CHD5 (PCC) (CHD5 (PCC)): 0.8263
- Array Heatmap signal, KDM5A (1) (KDM5A (1)): 0.5054
- Array Heatmap signal, KDM5B (1) (KDM5B (1)): 0.6712
- Array Heatmap signal, DIDO1 (DIDO1): 0.6557
- Array Heatmap signal, DPF2 (PPC2W2) (DPF2 (PPC2W2)): 0.6771
- Array Heatmap signal, PHF13 (PHF13): 0.644
- Array Heatmap signal, TAF3 (TAF3): 0.309
- Array Heatmap signal, CHD4 (PPCC) (CHD4 (PPCC)): 0.6128
- Array Heatmap signal, MORC3 (CW) (MORC3 (CW)): 0.372
- Array Heatmap signal, RAG2 (RAG2): 0.2497
- Array Heatmap signal, BAZ2B (BAZ2B): 0.4927
- Array Heatmap signal, ING2 (ING2): 0.591
- Array Heatmap signal, KDM5B (3) (KDM5B (3)): 0.5015
- Array Heatmap signal, PHF2 (PHF2): 0.467
- Array Heatmap signal, PHF23 (PHF23): 0.5352
- Array Heatmap signal, CHD5 (PPCC) (CHD5 (PPCC)): 0.5931
- Array Heatmap signal, KDM5A (3) (KDM5A (3)): 0.4198
- Array Heatmap signal, BPTF (PB) (BPTF (PB)): 0.3698
- Array Heatmap signal, ING4 (ING4): 0.489

Substance: H3 (21-44): H3 21-44
- Array Heatmap value (peptide array binding signal) (SP140L; SP140L, GST-tagged): 0.3812
- Array Heatmap value (peptide array binding signal) (PHF21A; PHF21A, GST-tagged): 0.4741
- Array Heatmap value (peptide array binding signal) (ING3; ING3, GST-tagged): 0.4903
- Array Heatmap value (peptide array binding signal) (MLL5; MLL5, GST-tagged): 0.6112
- Array Heatmap value (peptide array binding signal) (PHRF1 (RP); PHRF1 (RP), GST-tagged): 0.4628
- Array Heatmap value (peptide array binding signal) (PHF8; PHF8, GST-tagged): 0.4334
- Array Heatmap value (peptide array binding signal) (KDM7A; KDM7A, GST-tagged): 0.5232
- Array Heatmap value (peptide array binding signal) (ING1; ING1, GST-tagged): 0.59
- Array Heatmap value (peptide array binding signal) (TRIM66 (PB); TRIM66 (PB), GST-tagged): 0.5647
- Array Heatmap value (peptide array binding signal) (ING5; ING5, GST-tagged): 0.397
- Array Heatmap value (peptide array binding signal) (KDM4C (TTP); KDM4C (TTP), GST-tagged): 0.5571
- Array Heatmap value (peptide array binding signal) (AIRE (PP); AIRE (PP), GST-tagged): 0.5101
- Array Heatmap value (peptide array binding signal) (CHD5 (PCC); CHD5 (PCC), GST-tagged): 0.7773
- Array Heatmap value (peptide array binding signal) (KDM5A (1); KDM5A (1), GST-tagged): 0.5113
- Array Heatmap value (peptide array binding signal) (KDM5B (1); KDM5B (1), GST-tagged): 0.6648
- Array Heatmap value (peptide array binding signal) (DIDO1; DIDO1, GST-tagged): 0.7788
- Array Heatmap value (peptide array binding signal) (DPF2 (PPC2W2); DPF2 (PPC2W2), GST-tagged): 0.7579
- Array Heatmap value (peptide array binding signal) (PHF13; PHF13, GST-tagged): 0.6442
- Array Heatmap value (peptide array binding signal) (TAF3; TAF3, GST-tagged): 0.2755
- Array Heatmap value (peptide array binding signal) (CHD4 (PPCC); CHD4 (PPCC), GST-tagged): 0.6413
- Array Heatmap value (peptide array binding signal) (MORC3 (CW); MORC3 (CW), GST-tagged): 0.3763
- Array Heatmap value (peptide array binding signal) (RAG2; RAG2, GST-tagged): 0.2504
- Array Heatmap value (peptide array binding signal) (BAZ2B; BAZ2B, GST-tagged): 0.4957
- Array Heatmap value (peptide array binding signal) (ING2; ING2, GST-tagged): 0.6399
- Array Heatmap value (peptide array binding signal) (KDM5B (3); KDM5B (3), GST-tagged): 0.4825
- Array Heatmap value (peptide array binding signal) (PHF2; PHF2, GST-tagged): 0.5123
- Array Heatmap value (peptide array binding signal) (PHF23; PHF23, GST-tagged): 0.5869
- Array Heatmap value (peptide array binding signal) (CHD5 (PPCC); CHD5 (PPCC), GST-tagged): 0.5941
- Array Heatmap value (peptide array binding signal) (KDM5A (3); KDM5A (3), GST-tagged): 0.4938
- Array Heatmap value (peptide array binding signal) (BPTF (PB); BPTF (PB), GST-tagged): 0.3717
- Array Heatmap value (peptide array binding signal) (ING4; ING4, GST-tagged): 0.5057
